Test systems include LOX IMVI melanoma; MOLT-4 leukemia; SNB-75 CNS; NCI-H522 lung; MCF7 breast; M14 melanoma; SK-MEL-28 melanoma; OVCAR-4 ovarian.
Assay in all cases: NCI-60 cell line screen, 48 h

Molecules are shown by their SMILES.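 Assay format: 96-well plates, 48-hour exposure. Here, GI50 denotes the concentration required for 50% inhibition of growth. TGI is the concentration that stops growth completely.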

On to `O=C(O)c1ccccc1NCn1c(=S)sc2ccccc21`, for which the TGI is 43.4 µM in the assay on LOX IMVI melanoma; > 100 µM in the assay on MOLT-4 leukemia; > 100 µM in the assay with SNB-75 CNS; 78.3 µM with NCI-H522 lung; 51.7 µM in the assay on MCF7 breast; > 100 µM in the assay on M14 melanoma. The TGI in the assay on SK-MEL-28 melanoma and in the assay with OVCAR-4 ovarian was > 100 µM each time.

With `C=CC(=O)Nc1cc2c(Nc3ccc(F)c(Cl)c3)ncnc2cc1C#CC(C)(C)N1CCN(C)CC1`, the GI50 is 1.27 µM in the assay with LOX IMVI melanoma; 1.05 µM in the assay on MOLT-4 leukemia; 1.16 µM in the assay with SNB-75 CNS; 0.456 µM in the assay on NCI-H522 lung; 0.995 µM in the assay on MCF7 breast; 2.56 µM in the assay on M14 melanoma. Further, the GI50 in the assay on SK-MEL-28 melanoma was 3.1 µM; in the assay on OVCAR-4 ovarian, 1.32 µM. In addition, the TGI in the assay on LOX IMVI melanoma was 2.65 µM; with MOLT-4 leukemia it was 5.16 µM; in the assay with SNB-75 CNS, 3.86 µM; in the assay on NCI-H522 lung, 2.28 µM; in the assay on MCF7 breast, 3.17 µM; in the assay with M14 melanoma it was 5.71 µM. Further, the TGI came out at 5.67 µM with SK-MEL-28 melanoma and 2.86 µM with OVCAR-4 ovarian.

Turning to `COc1ccc(C2NC(=S)NC3=C2CCOc2c3ccc3ccccc23)cc1` (stereo not given), the GI50 with LOX IMVI melanoma was > 100 µM; in the assay with MOLT-4 leukemia, 87.1 µM; with SNB-75 CNS, 60.7 µM; with NCI-H522 lung it was 46.6 µM; in the assay with MCF7 breast, 5.32 µM; in the assay with M14 melanoma, > 100 µM. Moreover, the GI50 in the assay with SK-MEL-28 melanoma and in the assay with OVCAR-4 ovarian was > 100 µM in each case. Also, the TGI in the assay on LOX IMVI melanoma, in the assay with MOLT-4 leukemia, in the assay with SNB-75 CNS, in the assay on NCI-H522 lung, in the assay on MCF7 breast and with M14 melanoma was > 100 µM each time. Moreover, the TGI with SK-MEL-28 melanoma and in the assay with OVCAR-4 ovarian was > 100 µM each time.

In the case of `CCOC(=O)/C(=C\c1ccc2ccccc2c1)P(=O)(OCC)OCC`, the GI50 in the assay with LOX IMVI melanoma was 1.58 µM; in the assay on MOLT-4 leukemia, 2.16 µM; in the assay on SNB-75 CNS, 2.57 µM; with NCI-H522 lung, 1.52 µM; in the assay on MCF7 breast, 2.14 µM; in the assay on M14 melanoma it was 2.18 µM. Besides, the values for the GI50 in the assay with SK-MEL-28 melanoma and in the assay with OVCAR-4 ovarian were 2.95 µM and 4.16 µM, respectively. Further, the TGI is 3.08 µM in the assay on LOX IMVI melanoma; 6.25 µM with MOLT-4 leukemia; 14.8 µM with SNB-75 CNS; 3.35 µM with NCI-H522 lung; 7.12 µM in the assay with MCF7 breast; 5.59 µM in the assay on M14 melanoma. Also, the TGI in the assay with SK-MEL-28 melanoma came to 8.06 µM; with OVCAR-4 ovarian, 20.1 µM.

Consider `COCC(C(=O)OC1C/C=C/C=C/C(=O)OC(C(C)C(O)C(C)CCC(OC(=O)C(C)N(C)C)C(C)C(OC(C)=O)C(C)/C=C/N(C)C=O)C/C=C/C(OC)CC(C)C/C=C(\C)C(OC)CCC(C)C(O)C1C)N(C)C` (stereo not given), for which the GI50 with LOX IMVI melanoma, in the assay with MOLT-4 leukemia, in the assay with SNB-75 CNS, in the assay on NCI-H522 lung, in the assay with MCF7 breast and in the assay on M14 melanoma was < 0.0001 µM in each case. Further, the GI50 with SK-MEL-28 melanoma is < 0.0001 µM; in the assay with OVCAR-4 ovarian it was 0.00537 µM. The TGI is 0.00377 µM in the assay on LOX IMVI melanoma; > 0.201 µM in the assay with MOLT-4 leukemia; 0.0231 µM in the assay with SNB-75 CNS; < 0.0001 µM in the assay on NCI-H522 lung; 0.06 µM in the assay on MCF7 breast; 0.00697 µM in the assay with M14 melanoma. Further, the TGI is 0.0358 µM in the assay with SK-MEL-28 melanoma and > 0.281 µM in the assay with OVCAR-4 ovarian.

On to `COc1cccc(-c2nc3sccn3c2-c2ccnc(NCCCNS(=O)(=O)c3ccccc3)c2)c1`, for which the GI50 was 3.12 µM with LOX IMVI melanoma; 2.25 µM with MOLT-4 leukemia; 1.55 µM in the assay with SNB-75 CNS; 2.34 µM in the assay with NCI-H522 lung; 3.83 µM with MCF7 breast; 3.36 µM with M14 melanoma. The GI50 in the assay on SK-MEL-28 melanoma is 3.59 µM; with OVCAR-4 ovarian, 2.87 µM. The TGI in the assay with LOX IMVI melanoma was > 100 µM; in the assay on MOLT-4 leukemia it was 7.04 µM; with SNB-75 CNS it was 8.08 µM; with NCI-H522 lung, 15 µM; in the assay with MCF7 breast, > 100 µM; with M14 melanoma it was > 100 µM. Moreover, the TGI in the assay with SK-MEL-28 melanoma and with OVCAR-4 ovarian was > 100 µM in each case.

Regarding `COc1cc2c3c(n(CCCNCCCNCCCN)c(=O)c2cc1OC)-c1cc2c(cc1C3=O)OCO2`, the GI50 with LOX IMVI melanoma is 32.4 µM; in the assay with MOLT-4 leukemia, 21.2 µM; with SNB-75 CNS it was 12.8 µM; in the assay with NCI-H522 lung, > 100 µM; with MCF7 breast it was > 100 µM; with M14 melanoma, 52 µM. The GI50 with SK-MEL-28 melanoma is > 100 µM; in the assay with OVCAR-4 ovarian, 6.63 µM. Besides, the TGI in the assay on LOX IMVI melanoma, in the assay with MOLT-4 leukemia, in the assay on SNB-75 CNS, with NCI-H522 lung, with MCF7 breast and in the assay on M14 melanoma was > 100 µM throughout. The TGI in the assay on SK-MEL-28 melanoma and in the assay with OVCAR-4 ovarian was > 100 µM in each case.

With `COc1ccc(C(O)c2cc3c(N)c(C(=O)Nc4cccc(Br)c4C)sc3nc2C)cc1` (stereo not given), the GI50 in the assay on LOX IMVI melanoma was 0.187 µM; in the assay with MOLT-4 leukemia, 0.177 µM; in the assay with SNB-75 CNS, 0.0816 µM; in the assay with NCI-H522 lung, 0.157 µM; in the assay on MCF7 breast, 0.116 µM; with M14 melanoma, 0.109 µM. In addition, the GI50 in the assay with SK-MEL-28 melanoma was 5.2 µM; in the assay with OVCAR-4 ovarian, 2.81 µM. Further, the TGI in the assay on LOX IMVI melanoma was 12.4 µM; in the assay with MOLT-4 leukemia, > 33.3 µM; in the assay on SNB-75 CNS it was 11.2 µM; in the assay on MCF7 breast, > 33.3 µM; in the assay on M14 melanoma it was > 24 µM; in the assay with SK-MEL-28 melanoma, > 33.3 µM. The TGI in the assay on OVCAR-4 ovarian was > 33.3 µM.

On to `COc1cc(-c2nn(-c3cccc(NC(=O)CCNc4ccc(N5CCOCC5)cc4)c3)cc2-c2ccncc2)ccc1Cl`, for which the GI50 with LOX IMVI melanoma is 2.6 µM; with MOLT-4 leukemia, 1.6 µM; in the assay on SNB-75 CNS it was 4.22 µM; in the assay with NCI-H522 lung, 2.52 µM; with MCF7 breast, 2.47 µM; with M14 melanoma, 2.58 µM. Further, the GI50 is 3.13 µM with SK-MEL-28 melanoma and 2.6 µM with OVCAR-4 ovarian. Further, the TGI with LOX IMVI melanoma was 13 µM; with MOLT-4 leukemia, 6.98 µM; with SNB-75 CNS, > 100 µM; in the assay on NCI-H522 lung, 9.82 µM; in the assay on MCF7 breast, 11.5 µM; in the assay on M14 melanoma it was 10.5 µM. Besides, the TGI is > 100 µM in the assay on SK-MEL-28 melanoma and 16.6 µM in the assay on OVCAR-4 ovarian.

(Values after PubChem BioAssay (NCI).)
